Assay results as given in PubChem BioAssay (NCI).
Where “and” joins values, the source holds several entries; their conditions need not be identical. Equal values may be shown once.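 Method: 48-hour compound exposure of cells in 96-well plates, five concentrations, linear interpolation of endpoints. Abbreviation: GI50, concentration required for 50% inhibition of growth. The concentration for full growth arrest is given as TGI.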

Experiments:
Experiment in all cases: NCI tumour cell line growth inhibition, 48 h
HCC-2998 colon = test system: HCC-2998 colon
UACC-62 melanoma = test system: UACC-62 melanoma
COLO 205 colon = test system: COLO 205 colon
SF-295 CNS = test system: SF-295 CNS
NCI-H226 lung = test system: NCI-H226 lung
MOLT-4 leukemia = test system: MOLT-4 leukemia
TK-10 renal = test system: TK-10 renal
RXF 393 renal = test system: RXF 393 renal
SK-MEL-5 melanoma = test system: SK-MEL-5 melanoma
SR leukemia = test system: SR leukemia

| Compound | TGI (HCC-2998 colon) | TGI (UACC-62 melanoma) | TGI (COLO 205 colon) | TGI (SF-295 CNS) | TGI (NCI-H226 lung) | TGI (MOLT-4 leukemia) | TGI (TK-10 renal) | TGI (RXF 393 renal) | TGI (SK-MEL-5 melanoma) | TGI (SR leukemia) | GI50 (HCC-2998 colon) | GI50 (UACC-62 melanoma) | GI50 (SF-295 CNS) |
| --- | --- | --- | --- | --- | --- | --- | --- | --- | --- | --- | --- | --- | --- |
| CCCCSC1=N/C(=C\c2ccccc2O)C(Cl)=N1 | > 100 µM | > 100 µM | > 100 µM | > 100 µM | > 100 µM | > 100 µM | > 100 µM | > 100 µM |  |  |  |  |  |
| Nc1nc(Nc2cc(F)c(Cl)c(F)c2)cc(=O)[nH]1 | 61.5 µM | > 100 µM | > 100 µM | > 100 µM | > 100 µM | > 100 µM | > 100 µM |  | > 100 µM |  |  |  |  |
| CSC(=NCCCN=C(NS(=O)(=O)c1ccc(Cl)cc1)SC)NS(=O)(=O)c1ccc(Cl)cc1 | 83.6 µM | > 100 µM | 51.6 µM | > 100 µM |  | 33.2 µM | > 100 µM |  |  | > 100 µM |  |  |  |
| CCc1nc2cc(F)ccc2[nH]c1=O | > 100 µM | > 100 µM | > 100 µM | > 100 µM | > 100 µM | > 100 µM | > 100 µM | > 100 µM | > 100 µM |  |  |  |  |
| COc1cc(CC2C(=O)OCC2Cc2ccc(OC)c(OC)c2)ccc1O (stereo not drawn) |  | > 100 µM | > 100 µM | > 100 µM | > 100 µM | > 31.7 µM | > 100 µM | > 100 µM | > 100 µM | > 100 µM |  |  |  |
| CN(C)c1ccc(/C=C2\CCCCCC2=O)cc1 | > 100 µM | > 100 µM | > 100 µM | > 100 µM |  | > 100 µM | > 100 µM | > 100 µM | > 100 µM | > 100 µM |  |  |  |
| CCOC(=O)N/N=C(/N)Cc1ccc(Cl)cc1 | > 100 µM | > 100 µM | > 100 µM | > 100 µM |  | > 100 µM | > 100 µM | > 100 µM | > 100 µM |  |  |  |  |
| CO[C@@H](c1ccccc1)[C@H](O)[C@@](O)(c1ccccc1)P(=O)(OC)OC |  | > 100 µM | > 100 µM | > 100 µM | > 100 µM | > 100 µM | > 100 µM | > 100 µM | > 100 µM | > 100 µM |  |  |  |
| O=[N+]([O-])c1cccc2c1[nH]c1c(-c3ccccc3)nccc12 | 13.9 µM | 9.04 µM | 4.23 µM | 12.1 µM | 5.33 µM | 4.4 µM |  | 12.4 µM | 3.46 µM |  |  |  |  |
| Oc1[nH]c2ccccc2c1N=Nc1nc(-c2ccccc2)cs1 | > 100 µM |  | > 100 µM | 63.1 µM | > 100 µM | > 100 µM | > 100 µM |  | > 100 µM |  |  |  |  |
| O=C1Cc2c([nH]c3c(Br)cccc23)-c2ccccc2N1 | > 100 µM | > 100 µM | > 100 µM | > 100 µM | > 100 µM | 43.6 µM |  |  | > 100 µM | 55.3 µM |  |  |  |
| CCCSC1=N/C(=C\c2ccco2)C(=O)N1 | > 100 µM | > 100 µM | > 100 µM | > 100 µM | > 100 µM | > 100 µM | > 100 µM | > 100 µM |  |  |  |  |  |
| COc1c(-c2nc3nc(N4CCN(C)CC4)ccc3[nH]2)cc(OC)c2c1nc(CCl)n2C | 31.2 µM | 23.1 µM | 31.1 µM | > 100 µM | 66.1 µM | 58.3 µM |  | 33.8 µM |  |  |  |  |  |
| CO/C(N)=C(\C#N)N=Cc1cccs1 | > 100 µM | > 100 µM | > 100 µM | > 100 µM | > 100 µM | > 100 µM | > 100 µM | > 100 µM | > 100 µM |  |  |  |  |
| COc1ccc2c(C=O)c3n(c(=O)c2c1OC)CCc1cc2c(cc1-3)OCO2 | 94.1 µM | > 100 µM | 82 µM | > 100 µM | > 100 µM | > 100 µM | > 100 µM | 11.3 µM | > 100 µM |  |  |  |  |
| N=c1sc(N2CCOCC2)nn1CC(=O)c1ccccc1 | > 100 µM | > 100 µM | > 100 µM | > 100 µM | > 100 µM | > 100 µM | > 100 µM | > 100 µM | > 100 µM |  |  |  |  |
| CCN(CC)CCCNc1nnc(C)c2[nH]c3ccccc3c12 | 22.2 µM | 27.9 µM | 13.1 µM | 62.5 µM |  | > 100 µM | 67.2 µM | 38.8 µM | 27.8 µM | 32.6 µM |  |  |  |
| CCCCN1/C(=N/Nc2n[nH]c(=O)c3ccccc23)SCC1c1ccc(Cl)cc1 (stereo not drawn) |  | 20.7 µM | > 100 µM | 22.6 µM | 27.5 µM |  | 92.7 µM | 63.1 µM | 14.3 µM | 24.6 µM |  |  |  |

| Compound | TGI (HCC-2998 colon) | TGI (UACC-62 melanoma) | TGI (COLO 205 colon) | TGI (SF-295 CNS) | TGI (NCI-H226 lung) | TGI (MOLT-4 leukemia) | TGI (TK-10 renal) | TGI (RXF 393 renal) | TGI (SK-MEL-5 melanoma) | TGI (SR leukemia) | GI50 (HCC-2998 colon) | GI50 (UACC-62 melanoma) | GI50 (SF-295 CNS) |
| --- | --- | --- | --- | --- | --- | --- | --- | --- | --- | --- | --- | --- | --- |
| CCCCCCCCCCCCCCCC(=O)OCC(COP(=O)(O)OCCNC(=O)CCSSc1ccccn1)OC(=O)CCCCCCCCCCCCCCC (stereo not drawn) |  | > 100 µM | > 100 µM | > 100 µM | > 100 µM | > 100 µM |  | > 100 µM | > 100 µM | > 100 µM |  |  |  |
| COc1ccc(-c2cc(-c3ccc(Nc4ccnc5cc(C(F)(F)F)ccc45)cc3)nc(N)c2C#N)c2ccccc12 | > 100 µM | > 100 µM | > 100 µM | > 100 µM |  | > 100 µM | > 100 µM | > 100 µM | > 100 µM | > 100 µM |  |  |  |
| CCOC(=O)C1(NC(=O)OC(C)(C)C)CCc2[nH]oc(=O)c2C1 (stereo not drawn) | > 100 µM | > 100 µM | > 100 µM | > 100 µM | > 100 µM | > 100 µM | > 100 µM |  | > 100 µM |  |  |  |  |
| CC1=C(C(=O)OC(C)(C)C)C(c2ccc([N+](=O)[O-])cc2)C(C(=O)OC(C)(C)C)=C(C)N1 | 27.2 µM | 34.8 µM | 39.8 µM | 46.2 µM | 39.1 µM | 41.6 µM | 38.1 µM | 36.2 µM | 32.9 µM |  |  |  |  |
| COC1=C(C)C(=O)C2=C(C1=O)C1C3CC4=C(C(=O)C(OC)=C(C)C4=O)C(CNC(=O)C(C)=O)N3C(C#N)C(C2)N1C (stereo not drawn) |  | 0.000825 µM and 0.0075 µM |  | 0.253 µM and 0.383 µM |  |  | 3.76 µM | 0.0161 µM |  |  | 0.000219 µM | 0.000111 µM | 0.000966 µM |
| O=C(Cn1c(-c2ccccc2)cc2ccccc21)N1CCOCC1 | > 100 µM | > 100 µM | > 100 µM | > 100 µM | > 100 µM | > 100 µM | > 100 µM | > 100 µM | > 100 µM |  |  |  |  |
| O=C(Nc1nc2ccc([N+](=O)[O-])cc2s1)c1cc([N+](=O)[O-])ccc1Cl |  |  | 3.65 µM | 14.8 µM | 7.24 µM | > 100 µM | 32 µM | 15.5 µM | 2.83 µM |  |  |  |  |
| N#Cc1c(N)n(-c2nc3ccccc3s2)c(=O)c2cc([N+](=O)[O-])ccc12 | 41.2 µM | 66.8 µM |  | > 64.9 µM | 52.6 µM | 19.9 µM | > 100 µM | 41.9 µM |  | 56.2 µM |  |  |  |
| COC(=O)C1CCC(=S)N1C(C)=O (stereo not drawn) | > 100 µM | > 100 µM | > 100 µM | > 100 µM |  | > 100 µM | > 100 µM | > 100 µM | > 100 µM |  |  |  |  |
| CC(=O)OCc1cc2c(s1)C(=O)c1sccc1C2=O | 3.22 µM | 0.305 µM | 3.03 µM | 0.162 µM | 1.24 µM |  | 3.73 µM | 0.31 µM | 0.0569 µM |  |  |  |  |
| COc1ccc(OC)c2c(Nc3ccc(S(=O)(=O)O)c4cc(S(=O)(=O)O)cc(S(=O)(=O)O)c34)cc(C)nc12 | > 100 µM | > 100 µM | > 100 µM | > 100 µM | > 100 µM | > 100 µM | > 100 µM | > 100 µM | > 100 µM |  |  |  |  |
| Cc1nnc(N)s/c1=N/O | > 100 µM | > 100 µM | > 100 µM | > 100 µM | > 100 µM | > 100 µM | > 100 µM | > 100 µM | > 100 µM |  |  |  |  |
| Cc1cccc2c1Oc1ncccc1C2NC(=O)CN(C)C (stereo not drawn) | > 10 µM | > 10 µM |  | > 10 µM | > 10 µM | > 10 µM | > 10 µM |  |  | > 10 µM |  |  |  |
| COC(=O)c1ccccc1NCc1cc(O)ccc1O | > 55.7 µM | 45.5 µM | 34 µM | 33.3 µM | 65.3 µM | 76.9 µM | > 57.6 µM | 30.3 µM | 38.9 µM |  |  |  |  |
| CNc1nc(OC)c2c(n1)[n+](C)cn2C |  | > 100 µM | > 100 µM | > 100 µM | > 100 µM | > 100 µM | > 100 µM | > 100 µM | > 100 µM |  |  |  |  |
| CC(=O)Oc1c(OC(C)C)cc(=O)n2ccsc12 | > 100 µM | > 100 µM | > 100 µM | > 100 µM | > 100 µM | > 100 µM | > 100 µM | > 100 µM | > 100 µM |  |  |  |  |
| CC(=O)Nc1ccc(C(=O)NN2C(=O)CSC2c2ccccc2)cc1 (stereo not drawn) | > 100 µM | > 100 µM | > 100 µM | > 100 µM | > 100 µM | > 100 µM | > 100 µM | > 100 µM | > 100 µM |  |  |  |  |
| CC(C)=C[C@@H]1C[C@H](C)[C@H]2CC[C@H](C)[C@H]3C(=O)C(O)=C(C)C(=O)[C@]123 | > 100 µM | > 100 µM | > 100 µM | > 100 µM | > 100 µM | > 100 µM | > 100 µM |  | > 100 µM |  |  |  |  |
